According to patent US20100297020A1, “PHOSPHORYLATED AND PHOSPHONATED PYRONE ANALOGS FOR THERAPEUTIC TREATMENT” (Limerick Biopharma, Inc., priority 2008, published 2010):

Legend:
AdrenergicA2A = target: T1, AdrenergicA2A (Homo sapiens, UniProt P08913); experiment: AdrenergicA2A GTPγS functional assay; assay type: biochemical; settings: 10 μM; compound may be / can be tested
T1 sequence (P08913 1-465): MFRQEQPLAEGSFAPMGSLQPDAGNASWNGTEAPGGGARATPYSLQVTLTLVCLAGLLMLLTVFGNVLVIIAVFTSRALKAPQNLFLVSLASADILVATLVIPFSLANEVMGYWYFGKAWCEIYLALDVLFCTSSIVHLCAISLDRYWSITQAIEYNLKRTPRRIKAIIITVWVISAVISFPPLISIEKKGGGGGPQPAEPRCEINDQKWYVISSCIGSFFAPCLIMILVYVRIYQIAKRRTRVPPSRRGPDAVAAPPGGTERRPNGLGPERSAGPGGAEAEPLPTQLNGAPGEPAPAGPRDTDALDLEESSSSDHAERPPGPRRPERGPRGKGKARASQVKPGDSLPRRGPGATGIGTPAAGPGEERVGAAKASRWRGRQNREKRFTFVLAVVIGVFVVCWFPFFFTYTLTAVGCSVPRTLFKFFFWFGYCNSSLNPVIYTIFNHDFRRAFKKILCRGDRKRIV
Procedure: (§1) The compound is additionally tested in AdenosineA1, AdrenergicA2A, DopamineD25, Histamine H1-, and μ-Opiate GTPγS functional assays using a concentration of 10 μM.
(§2) The compound may be additionally tested in AdenosineA1, AdrenergicA2A, DopamineD25, Histamine H1-, and μ-Opiate GTPγS functional assays using a concentration of 10 μM.
(§3) The compound can be additionally tested in AdenosineA1, AdrenergicA2A, DopamineD25, Histamine H1-, and μ-Opiate GTPγS functional assays using a concentration of 10 μM.

AdenosineA1 = target: T2, AdenosineA1 (Homo sapiens, UniProt P30542); experiment: AdenosineA1 GTPγS functional assay; assay type: biochemical; settings: 10 μM; compound may be / can be tested
T2 sequence (P30542 1-326): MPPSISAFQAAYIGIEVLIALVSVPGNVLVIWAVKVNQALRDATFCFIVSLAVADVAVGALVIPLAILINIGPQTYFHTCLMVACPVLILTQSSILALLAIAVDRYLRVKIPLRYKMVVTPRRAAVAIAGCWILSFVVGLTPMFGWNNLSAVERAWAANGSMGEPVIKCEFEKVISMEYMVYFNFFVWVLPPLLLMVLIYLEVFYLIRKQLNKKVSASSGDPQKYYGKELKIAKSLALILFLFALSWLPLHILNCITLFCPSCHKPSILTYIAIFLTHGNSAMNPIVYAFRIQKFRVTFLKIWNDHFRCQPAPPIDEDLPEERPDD
Procedure: as §1, §2, §3

male ZDF rats = experiment: 4 week study in ZDF rats (compound 2, compound 3); assay type: in vivo
Excerpt: Seven week old male ZDF rats are used for the study.
Experimental Design: This study is a 4 week study Using 32 7-week old male ZDF rats, divided into 4 treatment arms (8 rats/arm).

ZDF rats = experiment: Pancreas histopathology, insulin staining and TUNEL in ZDF rats; assay type: in vivo
Excerpt: Pancreas samples from Example 26 are stored in 10% NBF and used in this study. All tissue samples were processed through graded alcohols, cleared in xylene and infiltrated and embedded into paraffin. For the pancreas four 4 micron sections were cut, one was stained with Hematoxylin and Eosin for histopathology, two were immunohistochemically stained with an antibody to insulin to determine beta cell mass and one was stained for apoptosis with the tunel technique.
The insulin staining procedure was performed as follows: Endogenous peroxidase activity was inhibited by incubation in 3% hydrogen peroxide. Non-specific staining was blocked with DAKO Protein Block Serum-Free (Dako, Carpinteria, Calif.). Insulin positive cells were immunohistochemically stained with a polyclonal guinea pig anti-swine insulin antibody at room temperature for 30 minutes (Dako, Carpinteria, Calif.). After incubation with primary antibody, the tissue sections were sequentially incubated with Envision+ HRP Rabbit (Dako, Carpinteria, Calif.). Staining was developed with Liquid DAB+ (Dako, Carpinteria, Calif.) and counterstained with hematoxylin.
Pancreas samples were stained for apoptosis as follows: 4 micron sections were cut and stained for TUNEL utilizing the following kit In Situ Cell Death Detection Kit, AP (Roche Applied Science, catalog 11 684 809 910).

[1] = system: BB19 cells, human BCECs (brain capillary endothelial cells); experiment: Cyclosporin uptake assay; assay type: cell-based; settings: 0.1 μM test compound; 1 hour incubation; 0.1 µM
Procedure: BB19 cells, human BCECs (brain capillary endothelial cells) immortalized with the E6E7 genes of human papilloma virus, were kindly provided from Jacques G. Prudhomme, Department of Biology, University of California, Riverside, U.S.A. The cells were cultured as monolayer culture in Amniomax™-C100 basal medium (catalog number 17001-157) with Amniomax™-C100 supplement (catalog number 12556-049) (Invitrogen, Basel, CH).
Cells were seeded onto culture surfaces precoated with 10 μg/cm^2 rat tail collagen type I (BD Bioscience, Allschwil, CH) at a density of approximately 50′000 cells/cm^2 and were cultured in an incubator at 37° C. with 5% CO2, 95% fresh air and saturated humidity. For uptake assays, cells were seeded on precoated 96-well plates. Assays were performed at confluency, after 6 days in culture.
BB19 cells were seeded 50′000 cells/cm^2 on 96-well plates (Falcon) and incubated under condition described above for 6 days. Before starting the assay, cells were washed 2 times with pre-warmed Dulbecco's MEM with Glutamax-I (catalog number 61965) (Invitrogen AG, Basel, CH), supplemented with 1% non essential amino acids, 1% sodium pyruvate, 50 μg/ml gentamycin (Invitrogen AG) (DMEM). Cells were then incubated for 15 min at 37° C. and 120 rpm in DMEM with or without the specified concentrations of test compounds under investigation. After this pre-incubation, cells were incubated in DMEM containing [propyl-3H]-dihydro-FK506 (3H-tacrolimus, 1 μCi/ml, 34 nM) and with or without the specified concentrations of test compounds for 1 hour at 37° C. and 120 rpm. During this 1-hour incubation period, influx and efflux of the substrate, ^3H-tacrolimus, occur. After the 1-hour incubation period, assay was terminated by placing the assay plate on ice and washing the cells twice with ice-cold DMEM. Determination of cell associated ^3H-tacrolimus was performed by addition of Insta Gel and scintillation liquid to trypsinized cells followed by analysis on a scintillation counter (Packard TriCarb2000, Can berra Packard S.A.). The results are expressed as: % of control=100×[^3H-tacrolimus conc. with test compound]/[^3H-tacrolimus conc. with vehicle]
The cyclosporin uptake assay was performed similarly as described above for tacrolimus uptake assay except that ^3H-cyclosporin was used in place of ^3H-tacrolimus.

[2] = following four weeks of daily treatment

O=c1c(O)c(-c2ccc(O)c(OCP(=O)(O)O)c2)oc2cc(O)cc(O)c12 [Compound 2, Quercetin-3′-O-methylphosphonic acid]
inhibition in the AdrenergicA2A assay (AdrenergicA2A): marked negative inhibition | antagonist activity in the AdenosineA1 assay (AdenosineA1): 48% | plasma insulin levels (male ZDF rats; 4 weeks daily i.p., compared to vehicle treated animals): require lower insulin levels to maintain nomal glucose levels | plasma glucose levels (male ZDF rats; 4 weeks daily i.p., compound 2 100 mg/kg, compound 3 100 mg/kg day 4 and 5, 50 mg/kg day 6-28, rosiglitazone 6 mg/kg): maintains steady glucose levels | glycated hemoglobin levels (% HbA1c) at termination (male ZDF rats; compared to vehicle treated animals): lower glycated hemoglobin levels | triglycerides (male ZDF rats; day 14 and day 21, over vehicle controls): marked decreases in triglycerides | islet cell apoptosis (ZDF rats; TUNEL, following four weeks of daily treatment): decreases in islet cell apoptosis | decrease in islet vacuolar degeneration (inhibition) (ZDF rats; [2]): 43% | decrease in pancreatic inflammation (inhibition) (ZDF rats; [2]): 60% | ratio of insulin positive islet cells to pancreas cells (ZDF rats; insulin immunohistochemistry): significantly increased | cell associated ^3H-cyclosporin uptake, % of control [1]: 54 % of control
